Data: patent publication US12473295B2, “Substituted straight chain spiro derivatives” (Janssen Pharmaceutica NV, priority 2019, dated 2025)
Structures can show the parent of a compound that is named as a salt. Where two headings read alike, the source gives them in different places.

What was measured:
[1] = system: MOLM14 cells; assay: Proliferation assay (spheroid growth, 8 days), MOLM14; assay type: cell-based, human; conditions: MOLM14, 8 days, read-out: spheroid assay_OneTime MOLM14 IC50;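 further: spheroid size read as confluence by live-cell imaging, compounds added at a range of concentrations with 0.3% DMSO, DMSO-treated wells = 0%, highest reference dose = low control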
[2] = target: hERG potassium channel (Homo sapiens (Human), UniProt Q12809); assay: Effect on membrane potassium current IKr in hERG transfected CHO cells, Protocol 1 (QPatch); assay type: cell-based
Description: 8) Effect on the Membrane Potassium Current IKr in hERG Transfected Cell Lines
• CHO Chinese hamster ovary cell line • DMSO Dimethylsulfoxide • hERG human ether-á-go-go-related gene • IKr rapidly activating delayed-rectifier K^+ current Methods
Experiments were performed using CHO cells stably expressing the hERG potassium channel. Cells were grown at 37° C. and 5% CO2 in culture flasks in Ham's F12 Medium supplemented with 10% heat-inactivated fetal calf serum, hygromycin B (100 μg/ml) and geneticin (100 μg/ml). For use in the automated patch-clamp system QPatch (Sophion) cells were harvested to obtain cell suspension of single cells.
Solutions: The bath solution contained (in mM) 145 NaCl, 4 KCl, 10 glucose, 10 HEPES ((4-(2-hydroxyethyl)-1-piperazineethanesulfonic acid), 2 CaCl2 and 1 MgCl2 (pH 7.4 with NaOH). The pipette solution contained (in mM) 120 KCl, 10 EGTA (Ethylene glycol-bis(2-aminoethylether)-N,N,N′,N′-tetraacetic acid), 10 HEPES, 5.374 CaCl2 and 1.75 MgCl2 (pH 7.2 with KOH).
Patch-clamp experiments were performed in the voltage-clamp mode and whole-cell currents were recorded with an automated patch-clamp assay utilizing the QPatch system (Sophion). Current signals were amplified and digitized, stored and analyzed by using the QPatch assay software.
The holding potential was −80 mV. The hERG current (K^+-selective outward current) was determined as the maximal tail current at −40 mV after a 2 second depolarization to +60 mV. Pulse cycling rate was 15 s. A short pulse (90 ms) to −40 mV served as a baseline step to calculate the tail current amplitude. After establishing whole-cell configuration and a stability period, the solvent control (0.3% DMSO) was applied for 5 minutes followed by the test substance by four increasing concentrations of 3×10^−7 M, 3×10^−6 M, 10^−5 M and 3×10^−5 M. Each concentration of the test substance was applied twice. The effect of each concentration was determined after 5 min as an average current of 3 sequential voltage pulses. To determine the extent of block the residual current was compared with vehicle pre-treatment.
Concentration/response relations were calculated by non-linear least-squares fits to the individual data points. The half-maximal inhibiting concentration (IC50) was calculated by the fitting routine.

[3] = system: OCI-AML3 cells; assay: Proliferation assay (spheroid growth, 8 days), OCI-AML3; assay type: cell-based, human
Procedure, shortened: (§1)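 IC50 values derive from day-8 spheroid confluence, normalized between DMSO-treated wells and the highest dose of a reference compound, fitted with a variable slope. Cells grew 8 days at 37° C under a compound concentration series in 0.3% DMSO.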

[4] = target: menin/MLL (terbium chelate-labeled menin, FITC-MBM1 peptide) (Homo sapiens (Human), UniProt O00255); assay: Menin/MLL homogenous time-resolved fluorescence (HTRF) assay; assay type: binding;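 further: IC50 from percent inhibition of HTRF signal, normalized between wells without competitor and wells with a saturating competitor that displaces FITC-MBM1 from His-tagged menin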
[5] = system: KO-52 cells; assay: Proliferation assay (spheroid growth, 8 days), KO-52 control cell line; assay type: cell-based, human; conditions: read-out: spheroid assay_OneTime KO-52 IC50
Procedure, shortened: as §1

[6] = system: MEIS1 mRNA; assay: MEIS1 mRNA expression assay (Quantigene Singleplex) in MOLM14 cells; assay type: cell-based, human;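 further: MEIS1 transcript levels read by probe hybridization and normalized to RPL28 mRNA, with IC50 fitted to fold changes across a rising compound concentration series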
[7] = Homo sapiens, OCI-AML-3, […], OCI-AML3, 8 days
[8] = HTRF-30 min incubation IC50, 30 min incubation
[9] = Homo sapiens, MOLM-14, 48 h, 48 hours incubation
[10] = Homo sapiens, OCI-AML-3, OCI-AML3, 8 days
[11] = Homo sapiens, MOLM-14, 48 hours incubation

Chain of menin/MLL (terbium chelate-labeled menin, FITC-MBM1 peptide) (O00255 other isoform, or with tags, fused parts or gaps): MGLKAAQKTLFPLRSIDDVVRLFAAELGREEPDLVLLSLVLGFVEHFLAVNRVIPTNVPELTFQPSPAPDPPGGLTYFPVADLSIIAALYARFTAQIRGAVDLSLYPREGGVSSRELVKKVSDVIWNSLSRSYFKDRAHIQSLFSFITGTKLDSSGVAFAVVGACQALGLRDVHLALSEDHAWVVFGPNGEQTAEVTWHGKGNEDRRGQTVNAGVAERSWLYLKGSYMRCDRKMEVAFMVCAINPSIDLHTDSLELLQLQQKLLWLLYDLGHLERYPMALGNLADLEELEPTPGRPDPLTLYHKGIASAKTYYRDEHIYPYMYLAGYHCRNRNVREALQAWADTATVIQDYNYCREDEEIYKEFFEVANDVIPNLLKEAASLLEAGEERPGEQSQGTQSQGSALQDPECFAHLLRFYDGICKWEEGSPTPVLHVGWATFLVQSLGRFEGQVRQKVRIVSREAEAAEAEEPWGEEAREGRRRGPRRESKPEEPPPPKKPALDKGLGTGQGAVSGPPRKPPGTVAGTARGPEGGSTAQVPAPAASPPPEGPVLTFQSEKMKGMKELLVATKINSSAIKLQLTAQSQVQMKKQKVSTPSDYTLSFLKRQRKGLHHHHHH
Chain of hERG potassium channel (Q12809 whole entry): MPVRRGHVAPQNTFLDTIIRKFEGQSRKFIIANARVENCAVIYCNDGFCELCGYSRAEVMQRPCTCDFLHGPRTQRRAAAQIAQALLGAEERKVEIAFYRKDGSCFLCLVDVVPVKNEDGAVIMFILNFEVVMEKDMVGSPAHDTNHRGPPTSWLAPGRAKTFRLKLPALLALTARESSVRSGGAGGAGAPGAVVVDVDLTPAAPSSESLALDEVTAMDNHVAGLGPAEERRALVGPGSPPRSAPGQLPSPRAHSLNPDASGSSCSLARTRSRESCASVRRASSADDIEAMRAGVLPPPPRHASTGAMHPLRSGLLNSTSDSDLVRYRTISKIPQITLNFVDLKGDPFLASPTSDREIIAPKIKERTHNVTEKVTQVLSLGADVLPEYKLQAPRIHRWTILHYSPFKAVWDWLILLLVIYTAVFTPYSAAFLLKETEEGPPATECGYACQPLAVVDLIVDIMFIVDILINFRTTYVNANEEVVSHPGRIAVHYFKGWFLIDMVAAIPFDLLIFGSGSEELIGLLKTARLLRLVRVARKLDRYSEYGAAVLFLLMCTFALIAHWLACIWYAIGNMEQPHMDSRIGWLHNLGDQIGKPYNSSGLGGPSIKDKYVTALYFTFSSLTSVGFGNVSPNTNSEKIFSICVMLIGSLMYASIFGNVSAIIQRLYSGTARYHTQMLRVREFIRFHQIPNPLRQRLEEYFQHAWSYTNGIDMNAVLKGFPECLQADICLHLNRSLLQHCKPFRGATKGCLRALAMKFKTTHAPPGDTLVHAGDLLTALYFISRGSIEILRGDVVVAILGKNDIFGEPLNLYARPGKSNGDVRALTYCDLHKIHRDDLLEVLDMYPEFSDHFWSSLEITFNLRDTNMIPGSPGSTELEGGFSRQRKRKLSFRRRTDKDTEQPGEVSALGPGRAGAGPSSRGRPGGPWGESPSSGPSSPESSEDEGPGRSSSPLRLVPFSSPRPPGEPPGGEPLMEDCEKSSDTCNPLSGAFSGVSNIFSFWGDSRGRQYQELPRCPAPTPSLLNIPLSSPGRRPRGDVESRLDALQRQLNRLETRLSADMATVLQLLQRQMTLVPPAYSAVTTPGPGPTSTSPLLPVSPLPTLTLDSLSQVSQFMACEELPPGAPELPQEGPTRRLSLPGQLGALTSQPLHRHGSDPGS

IC50 ([1]; Homo sapiens, MOLM-14, […]) [nM] | IC50 [3, 7] [nM] | IC50 [4, 8] [nM] | IC50 [6, 9] [nM] | IC50 [1] [nM] | IC50 ([3]; OCI-AML3, 8 days) [nM] | IC50 ([4]; read-out: HTRF-30 min incubation IC50, 30 min incubation) [nM] | IC50 ([6]; 48 hours incubation) [nM] | SMILES | IC50 [2] [nM] | IC50 ([5]; Homo sapiens, […]) [nM] | IC50 ([1]; Homo sapiens, MOLM-14) [nM] | IC50 [3, 10] [nM] | IC50 ([5]; Homo sapiens) [nM] | IC50 [6, 11] [nM] | IC50 [5] [nM]
27 | 140 | 0.26 | 44 |  |  |  |  | CCN(C(=O)c1cc(F)ccc1Oc1nncnc1N1CCC2(C1)CN([C@H](CCCNC(=O)OC(C)OC(=O)C(C)C)C(C)C)C2)C(C)C (stereo partly drawn) [Compound 39, 1-((((R)-4-(6-(6-(2-(ethyl(isopropyl)carbamoyl)-4-fluorophenoxy)-1,2,4-triazin-5-yl)-2,6-diazaspiro[3.4]octan-2-yl)-5-methylhexyl)carbamoyl)oxy)ethyl isobutyrate] | 7600 | > 15000 |  |  |  |  | 
32 | 640 | 0.065 | 53 |  |  |  |  | CCN(C(=O)c1cc(F)ccc1Oc1nncnc1N1CCC2(C1)CN([C@H](CCCN(C)CC(C)OC)C(C)C)C2)C(C)C (stereo partly drawn) [Compound 252, N-ethyl-5-fluoro-N-isopropyl-2-((5-(2-((3R)-6-((2-methoxypropyl)(methyl)amino)-2-methylhexan-3-yl)-2,6-diazaspiro[3.4]octan-6-yl)-1,2,4-triazin-6-yl)oxy)benzamide oxalate] | > 30200 | 7260 |  |  |  |  | 
 |  |  |  | 53 | 410 | 0.21 | 140 | CC(C)[C@@H](CCCN(C)C)N1CC2(CCN(c3ccnnc3Oc3ccc(F)cc3C(=O)N(C(C)C)C(C)C)C2)C1 (single isomer, unassigned) [Compound 75, (*R)-2-((4-(2-(6-(dimethylamino)-2-methylhexan-3-yl)-2,6-diazaspiro[3.4]octan-6-yl)pyridazin-3-yl)oxy)-5-fluoro-N,N-diisopropylbenzamide] | > 30200 |  |  |  |  |  | > 15000
27 | 740 | 0.33 | 26 |  |  |  |  | CCOCCN(C)CCC[C@H](C(C)C)N1CC2(CCN(c3ncnnc3Oc3ccc(F)cc3C(=O)N(CC)C(C)C)C2)C1 [Compound 258, (R)-2-((5-(2-(6-((2-ethoxyethyl)(methyl)amino)-2-methylhexan-3-yl)-2,6-diazaspiro[3.4]octan-6-yl)-1,2,4-triazin-6-yl)oxy)-N-ethyl-5-fluoro-N-isopropylbenzamide oxalate] | > 30200 | 5440 |  |  |  |  | 
10 | 96 | 0.12 | 8.2 |  |  |  |  | COCCN(C)CCC[C@H](C(C)C)N1CC2(CCN(c3ncnnc3Oc3ccc(F)cc3C(=O)N(C(C)C)C(C)C)C2)C1 (single isomer, unassigned) [Compound 94, (*R)-5-fluoro-N,N-isopropyl-2-((5-(2-(6-((2-methoxyethyl)(methyl)amino)-methylhexan-3-yl)-2,6-diazaspiro[3.4]octan-6-yl)-1,2,4-triazin-6-yl)oxy)benzamide oxalate] | 30900 | 4750 |  |  |  |  | 
200 | 490 | 0.15 | 120 |  |  |  |  | CCN(C(=O)c1cc(F)ccc1Oc1nncnc1N1CCC2(C1)CN([C@H](CCC(C)(C)NC)C(C)C)C2)C(C)C (single isomer, unassigned) [Compound 35, (*R)-2-((5-(2-(2,6-dimethyl-6-(methylamino)heptan-3-yl)-2,6-diazaspiro[3.4]octan-6-yl)-1,2,4-triazin-6-yl)oxy)-N-ethyl-5-fluoro-N-isopropylbenzamide hydrochloride] | > 30200 | > 15000 |  |  |  |  | 

Second part, the compound before the results:

SMILES | IC50 ([1]; Homo sapiens, MOLM-14, […]) [nM] | IC50 [3, 7] [nM] | IC50 [4, 8] [nM] | IC50 [6, 9] [nM] | IC50 [1] [nM] | IC50 ([3]; OCI-AML3, 8 days) [nM] | IC50 ([4]; read-out: HTRF-30 min incubation IC50, 30 min incubation) [nM] | IC50 ([6]; 48 hours incubation) [nM] | IC50 [2] [nM] | IC50 ([5]; Homo sapiens, […]) [nM] | IC50 ([1]; Homo sapiens, MOLM-14) [nM] | IC50 [3, 10] [nM] | IC50 ([5]; Homo sapiens) [nM] | IC50 [6, 11] [nM] | IC50 [5] [nM]
CCN(C(=O)c1cc(F)ccc1Oc1nncnc1N1CCC2(C1)CN([C@H](CCCNCCC#N)C(C)C)C2)C(C)C [Compound 12, (R)-2-((5(2-(6-((2-cyanoethyl)amino)-2-methylhexan-3-yl)-2,6-diazaspiro[3.4]octan-6-yl)-1,2,4-triazin-6-yl)oxy)-N-ethyl-5-fluoro-N-isopropylbenzamide] |  |  | 0.12 |  |  |  |  |  | > 30200 |  | 36 | 630 | 8240 | 39 | 
CCN(C(=O)c1cc(F)ccc1Oc1nncnc1N1CCC2(C1)CN([C@H](CCCN(C)C)C(C)C)C2)C(C)C [Compound 4, (R)-2-((5-(2-(6-(dimethylamino)-2-methylhexan-3-yl)-2,6-diazaspiro[3.4]octan-6-yl)-1,2,4-triazin-6-yl)oxy)-N-ethyl-5-fluoro-N-isopropylbenzamide] | 30 | 390 | 0.095 | 20 |  |  |  |  | > 30200 | > 15000 |  |  |  |  | 
CCN(C(=O)c1cc(F)ccc1Oc1nncnc1N1CCC2(C1)CN([C@H](CCC(C)(C)N)C(C)C)C2)C(C)C (single isomer, unassigned) [Compound 30, (*R)-2-((5-(2-(6-amino-2,6-dimethylheptan-3-yl)-2,6-diazaspiro[3.4]octan-6-yl)-1,2,4-triazin-6-yl)oxy)-N-ethyl-5-fluoro-N-isopropylbenzamide] | 130 | 470 | 0.067 | 99 |  |  |  |  | > 30200 | > 15000 |  |  |  |  | 
CCN(C(=O)c1cc(F)ccc1Oc1nncnc1N1CCC2(C1)CN([C@H](CCCN(C)CC(=O)N(C)C)C(C)C)C2)C(C)C [Compound 23] | 170 | 810 | 0.22 | 150 |  |  |  |  | > 30200 | 13800 |  |  |  |  | 
CCN(C(=O)c1cc(F)ccc1Oc1nncnc1N1CCC2(C1)CN([C@H](CCC(C)(C)NC(C)=O)C(C)C)C2)C(C)C (single isomer, unassigned) [Compound 34] | 3840 | 3440 | 0.87 | > 1000 |  |  |  |  | > 30200 | > 15000 |  |  |  |  | 
CCN(C(=O)c1cc(F)ccc1Oc1nncnc1N1CCC2(C1)CN([C@H](CCCNC(=O)OC)C(C)C)C2)C(C)C [Compound 10, methyl (R)-(4-(6-(6-(2-(ethyl(isopropyl)carbamoyl)-4-fluorophenoxy)-1,2,4-triazin-5-yl)-2,6-diazaspiro[3.4]octan-2-yl)-5-methylhexyl)carbamate] |  |  | 0.18 |  |  |  |  |  | > 30200 |  | 340 | 1680 | > 15000 | 410 | 
CCN(C(=O)c1cc(F)ccc1Oc1nncnc1N1CCC2(C1)CN([C@H](CCC(C)(C)N(C)C)C(C)C)C2)C(C)C (single isomer, unassigned) [Compound 32, (*R)-2-((5(2-(6-(dimethylamino)-2,6-dimethylheptan-3-yl)-2,6-diazaspiro[3.4]octan-6-yl)-1,2,4-triazin-6-yl)oxy)-N-ethyl-5-fluoro-N-isopropylbenzamide] | 58 | 280 | 0.1 | 88 |  |  |  |  | > 30200 | 12900 |  |  |  |  | 
CCN(C(=O)c1cc(F)ccc1Oc1nncnc1N1CCC2(C1)CN(C(CCCNCCS(C)(=O)=O)C(C)C)C2)C(C)C (stereo not drawn) [Compound 18, N-ethyl-5-fluoro-N-isopropyl-2-((5-(2-(2-methyl-6-((2-(methylsulfonyl)ethyl)amino)hexan-3-yl)-2,6-diazaspiro[3.4]octan-6-yl)-1,2,4-triazin-6-yl)oxy)benzamide] | 120 | 660 | 0.3 | 150 |  |  |  |  | > 30200 | > 15000 |  |  |  |  | 
